Tests used:
[1] = tested on: LIF expression in mouse neuroprogenitors; assay: LIF induction in mouse neuroprogenitors; assay type: cell-based; settings: from mouse embryos or the subventricular area of adult mice; data not shown
[2] = tested on: human LIF promoter; assay: LIF promoter luciferase reporter assay; assay type: cell-based; settings: U373MG cells as printed; 100 pM TGFβ1, 20 hours
Description: FIG. 4. TGFβ induces the transcription of LIF through an activated Smad complex. (A) Diagrams of the indicator constructs of luciferase LIF. (B) A172 glioma cells were transfected with indicator constructs of luciferase LIF (−634/+32), (−276/+32), (−276/+32) mutSBE or (−73/+32). 16 hours after transfection, the cells were treated with 100 pM TGFβ1 for 20 hours and were analyzed for luciferase activity. (C) U373MG cells were treated with 100 pM TGFβ1 for 3 hours, and ChIP assays were performed with the indicated antibodies and the PCR primers indicated. (D, E) The levels of LIF were determined by means of qRT-PCR analysis in U373MG (D) or GEM neurospheres (E) treated with 100 pM TGFβ1 for 3 hours after silencing mediated by siRNA of the indicated members of the indicated Smad family. Western blotting was performed using antibodies specific for Smads or qRT-PCR of Smad4. The β-actin was determined as an internal normalization control.
Genomic DNA of U373MG was used to amplify the −634/+32 region of the human LIF promoter which was cloned into the pGL2-basic luciferase vector. The deletion constructs (−267/+32), and (−73/+32) were generated by means of digestion of the construct (−634/+32). Two point mutations were introduced in positions −183 bp and −184 bp in the construct (−267/+32) to interrupt the Smad binding element (SBE) and generate the construct (−267/+32) mutSBE. […]

[3] = tested on: LIF protein secretion; assay: Secreted LIF protein by ELISA in GBM1 neurospheres; assay type: cell-based, human; settings: 48 hours, 100 pM TGFβ1
Description: FIG. 3. TGFβ induces the expression of LIF in PCTC and GBM neurospheres. (A) PCTC cells of the 11 samples of the indicated GEM (GBM1-11) were treated with 100 pM TGFβ1 for 3 hours in medium without serum or left untreated, and the expression levels of LIF were determined by means of qRT-PCR. The g-actin was determined as an internal normalization control. (B) GBM neurosphere cells were treated as in A and the expression levels of LIF were determined by means of qRT-PCR as in A. (C) GBM neurospheres were incubated with 100 pM TGFβ1 and/or 2 μM TβRI inhibitor for 3 hours in medium without serum and the mRNA levels of LIF were determined by means of qRT-PCR as in A. (D) GBM1 neurospheres were incubated with 100 pM TGFβ1, TGFβ2 and TGFβ3 for 3 hours in medium without serum and the mRNA levels of LIF were determined by means of qRT-PCR as in A. (E) The levels of LIF protein secreted were determined by means of ELISA in GBM1 neurospheres after 48 hours of treatment with 100 pM TGFβ1.
For the quantitative determination of the levels of LIF protein secreted to the medium, the human LIF ELISA kit (R&D Systems) was used, following the manufacturer's specifications. […]
It was decided to investigate the molecular mechanisms responsible for the effect of TGFβ on GICs. […] A panel of PCTCs derived from 11 different human GBMs was treated with TGFβ for 3 hours and the levels of LIF mRNA were determined.

transactivation of LIF promoter reporter constructs (−634/+32 and −276/+32) [2]: capable of transactivating
Substance: TGFβ: TGFβ1 (R&D Systems), used at 100 pM according to the figure legends
induction of LIF in mouse neuroprogenitors [1]: did not induce LIF
secretion of the LIF protein (ELISA, conditioned neurosphere medium) [3]: increase in the secretion of the LIF protein

— patent publication US11999782B2, “Therapeutic agents for the treatment of diseases associated with undesired cell proliferation” (Fundació Privada Institutció Catalana de Recerca I Estudis …, priority 2009, dated 2024)
